Literature values in patent US20250375548A1, “STERILIZATION PROCESS, SYSTEM AND PRODUCT INCLUDING MOLECULAR MOBILITY ENHANCER” (TEKDRY INTERNATIONAL, INC., priority 2019, published 2025).

Key:
[1] = 1,800 ppm at 44° C.
[2] = @ 25° C.

## O=COO [performic acid]
[1]
  D-value: lower than five
[2]
  vapor pressure: 78 mmHg

## CC(=O)OO [peracetic acid, reference compound]
[2]
  vapor pressure: 14.5 mmHg

## CCOCC [diethyl ether]
[2]
  vapor pressure: 520 mmHg
